From patent publication US6300350A, “Treatment of emphysema using RARy selective retinoid agonists” (priority 2000, dated 2001)

Legend:
[1] = test system: elastase-induced emphysema; experiment: Alveolar repair in rat model of elastase-induced emphysema, intraperitoneal; assay type: in vivo, male Sprague Dawley rats; design: Alveolar Area: unit not given here
Description: Animals were divided into treatment groups of approximately eight. […] Three weeks post injury ATRA or a RAR selective agonist was dissolved in DMSO (20 mg/ml) and stored at -20 C. Fresh working stocks were prepared fresh daily by dilution in corn oil to a final concentration of 2 mg/ml. […] Control groups were challenged with elastase and 21 days later treated with Vehicle (DMSO/PBS) for 14 days. Animals were sacrificed 24 hours after the last dose of by exsanguination under deep anesthesia. Blood was collected at time of exanguination for analysis of changes in blood chemistry from respective treatments. The lungs were inflated with 10% neutral buffered formalin by intratracheal instillation at a constant rate (1 ml/gram body mass/min). The lung was excised and immersed in fixative for 24 hours prior to processing. Standard methods were used to prepare 5 um paraffin sections. Sections were stained with Hematoxylin and Eosin (H%E). Computerized Morphometric analysis was performed to determine the average alveolar size and alveolar number.

[2] = test system: experimental emphysema; experiment: Alveolar repair in rat experimental emphysema, oral dosing; assay type: in vivo, rats; conditions: 1 mg/kg/PO daily for two weeks
Description: (§1) Three (3) weeks post injury animals were treated with vehicle (Capmul solution) or retinoids prepared in Capmul and dosed orally at 1, 3, and 10 mg/kg body weight. Animals were treated for 14 days prior to termination of study.
Dosage was at 1 mg/kg/PO daily for two weeks.

[3] = biological target: T1, RARβ (Homo sapiens, UniProt P10826); experiment: Transactivation, RARβ; assay type: cell-based; conditions: Table II
T1 sequence (P10826 1-455): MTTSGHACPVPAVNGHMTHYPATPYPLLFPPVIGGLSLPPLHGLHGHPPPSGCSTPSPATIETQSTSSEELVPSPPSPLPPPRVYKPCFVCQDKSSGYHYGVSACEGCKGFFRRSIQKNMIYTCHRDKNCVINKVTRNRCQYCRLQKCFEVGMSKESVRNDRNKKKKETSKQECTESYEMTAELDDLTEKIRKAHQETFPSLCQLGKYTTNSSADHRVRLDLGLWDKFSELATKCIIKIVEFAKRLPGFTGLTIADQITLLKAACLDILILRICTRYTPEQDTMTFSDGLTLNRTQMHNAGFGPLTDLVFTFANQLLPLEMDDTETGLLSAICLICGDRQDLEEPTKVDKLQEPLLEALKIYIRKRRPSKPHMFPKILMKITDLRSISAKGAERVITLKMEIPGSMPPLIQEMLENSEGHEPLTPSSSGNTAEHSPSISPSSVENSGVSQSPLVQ
Source text: As used herein, the term "transactivation" refers to the ability of a retinoid to activate the transcription of a gene where the gene transcription is initiated by the binding of a ligand to the particular retinoic acid receptor being tested, i.e., RARα, RARβ, or RARγ. Determining the ability of a compound to transactivate a retinoic acid receptor may be performed by methods known to those of skill in the art. […] Apfel etal., Proc. Nat.

[4] = test system: tropoelastin gene; experiment: RAR transactivation of steady state tropoelastin gene in normal human lung fibroblasts (CCD-16Lu); assay type: cell-based
Description: Transactivation of the tropoelastin gene in normal human lung fibroblasts (CCD-16Lu) was performed as described below. Cells were grown to confluence at which time fresh media +/- ATRA or selective retiniod was added to the basal culture. ATRA and/or selective retiniods were used at a concentration of 1×10^-7 M. The cell layer was lysed using a guanidinium-based buffer (TRIZOL/Sigma) for RNA extraction and analysis. Amplification of tropoelastin and GAPDH RNA was performed by standard quantitative RT-PCR (TAQMAN, Perken/Elmer) using appropriate selective primers. Tropo-elastin gene expression was normalized to the expression of standard house-keeping gene (GAPDH).
Samples were run in triplicate.

[5] = Plasma triglyceride levels in rats; assay type: in vivo; conditions: plasma, 1 mg/kg/PO daily for two weeks
Description: as §1, with “Experimental emphysema was induced in rats as described in Example 2. Three” for “Three”, “study. Lung harvest and blood collection was performed as described in Example 2.” for “study.”
Quantitation of triglycerides contained in rat plasma was performed after using established procedures in a contact clinical laboratory facility. Briefly, plasma triglycerides were converted to dihdroxyacetone and H2 O2, by sequential treatment of plasma with lipase and glycerokinase according directions described by manufacturer of triglycerides/GPO kit (Boehringer Mannheim #1488872). H2 02 was quantitated calorimetrically in a Hitachi 911 Chemistry Analyzer. In rats normal triglyceride levels are 75-175 mg/dl.
Dosage was at 1 mg/kg/PO daily for two weeks. […] Therefore, it appears that RARα selective activity is linked to elevated triglyceride levels.

[6] = biological target: T2, RARγ (Homo sapiens, UniProt P13631); experiment: Binding, RARγ (ligand binding assay)
T2 sequence (P13631 1-454): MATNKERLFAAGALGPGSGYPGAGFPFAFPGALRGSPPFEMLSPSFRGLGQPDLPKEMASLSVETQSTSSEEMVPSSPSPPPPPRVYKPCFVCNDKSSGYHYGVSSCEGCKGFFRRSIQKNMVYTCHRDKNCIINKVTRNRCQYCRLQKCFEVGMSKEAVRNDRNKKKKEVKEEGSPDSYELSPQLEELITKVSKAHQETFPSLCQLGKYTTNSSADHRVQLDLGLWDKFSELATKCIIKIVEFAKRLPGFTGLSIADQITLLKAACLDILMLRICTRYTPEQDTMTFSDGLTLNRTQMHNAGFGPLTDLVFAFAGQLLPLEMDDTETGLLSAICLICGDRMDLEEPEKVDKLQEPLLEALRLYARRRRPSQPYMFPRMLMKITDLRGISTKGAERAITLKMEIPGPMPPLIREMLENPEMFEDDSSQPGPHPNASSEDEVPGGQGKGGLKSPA
Source text: (§2) The RARγ agonist selectivity of a compound can be determined by routine ligand binding assays known to one of skill in the art such as described in C. Apfel et al., Proc. Nat.

[7] = biological target: T1, RARβ; experiment: Binding, RARβ (ligand binding assay); conditions: Table II
Source text: as §2

CCCCCCc1cc2c(cc1/C=C/c1ccc(C(=O)O)cc1)C(C)(C)CCC2(C)C [RAR Agonist 3]
% Repair ([1]; 0.5 mg/kg ip once daily, from 21 days post injury, 14 days): > 70% | Alveolar Area ([1]; 0.5 mg/kg ip once daily, from 21 days post injury, 14 days, naive 1637 +/- 153, elastase + vehicle 3570 +/- 319): 1929 +/- 150 | alveolar repair (in words) ([1]; elastase-treated rats, 0.5 mg/kg ip): markedly induce alveolar repair | light micrographs of lung sections (in words) ([1]; rat lung damaged by elastase and then treated, compared to normal rat lung): showed alveolar area similar to the normal rat lung | % Repair [2]: 73.7% | EC50 [3]: 88 nM | Tropo-elastin Expression ([4]; CCD-16Lu, 1×10^-7 M, RT-PCR, triplicate, untreated control 30.90): 68.58 (Elastin/GAPDH) × 10^5 | tropoelastin gene induction (in words) ([4]; human lung fibroblasts, compared to the control): markedly induces tropoelastin gene induction | triglyceride levels (in words) [5]: do not cause elevation in the triglyceride levels | [Triglyceride] ([5]; normal rat 75-175 mg/dl): 92 mg/dL | IC50 ([6]; Table II): 210 nM | IC50 ([6]; Table III): 210 nM | IC50 [7]: 3000 nM
